{"source": "patent US20260083844A1", "about": "“DOWNREGULATING INOS TO INCREASE CAR-T KILLING” (H. LEE MOFFITT CANCER CENTER AND RESEARCH INSTITUTE INC., priority 2022, published 2026)", "key": {"CAR T cells [1]": {"test_system": "CAR T cells", "assay": "CAR T cell expansion assay (live cell analysis) in coculture with Eμ-myc cells with or without macrophages", "type": "cell-based, mouse", "conditions": "over 48 h", "description": "To explore how M2-like macrophages may impact the cellular function of CAR T cells, a syngeneic coculture system was employed (FIG. 2A). […] The BMDMs were differentiated into M2-like macrophages (imMac) by culturing with IL-4 and IL-10 or with media alone without further differentiation to utilize as unpolarized macrophage controls (unMac). The mCherry reporter served as a marker for CAR transduction and CAR T cell expansion.\nThe expansion of CAR T cells was determined by an Incucyte S3 live cell analysis system (Essen Bioscience). 2×10^4 Eμ-myc cells and 2×10^4 CAR T cells were cocultured in the absence or presence of 0.5×10^4 macrophages (CAR T:Eμ-myc cell:Macrophage=1:1:0.25, unless otherwise indicated in the figure legends) in a 96-well black-walled clear bottom plate in 120 μl of media. Cell images were captured at 4× magnification. The expansion index was calculated by dividing the total integrated red intensity (RCU×μm^2/mm^2) at each time point by the first time point."}, "Eμ-myc cells": {"test_system": "Eμ-myc cells", "assay": "Luciferase-based killing assay with CAR T cells isolated from initial coculture", "type": "cell-based, mouse", "conditions": "for ability of CAR T cells to kill tumor cells: 48 h initial coculture with Eμ-myc cells in presence of NCX-4016 (100 µM) or PNT (50 µM), no macrophages, lysis at 24 h", "description": "(§1) 1×10^6 CAR T cells and 1×10^6 Eμ-myc-GFP-FFL cells were cocultured in the absence or presence of 0.25×10^6 macrophages in a 6-well plate in 6 ml of media for 48 h. After initial coculture, cells were harvested, and T cells were isolated using Mouse T Cell Isolation Kit ([…] Technologies). […] Percentage of CAR-expressing T cells was determined with flow cytometry and were subsequently used for downstream assays.\n2×10^4 Eu-ALL-GFP-FFL cells were cocultured with CAR T cells at different effector-to-target ratios in a 96-well white-walled plate in 100 μl of media. Following incubation, 100 μl luciferase substrate reagent (ONE-Glo Luciferase assay system, Promega) was added to each well. Target cells alone were plated at the same cell density to determine maximum luciferase signals. Emitted luminescence was detected in the microplate reader (GloMax, Promega). Percent lysis was determined as (1-sample signal/maximum signal)×100."}, "IFN-γ and TNF-α": {"test_system": "IFN-γ and TNF-α", "assay": "Cytokine secretion assay with CAR T cells isolated from initial coculture", "type": "cell-based, mouse", "conditions": "for secretion of effector cytokines IFN-γ and TNF-α by CAR T cells: 48 h initial coculture with Eμ-myc cells in presence of NCX-4016 (100 µM) or PNT (50 μM), no macrophages, supernatants at 24 h", "description": "as §1\n2×10^4 Eμ-myc cells were cocultured with 2×10^4 CAR T cells in a 96-well plate in a total volume of 100 μl of media. Supernatants were collected and analyzed for IFN-γ and TNF-α secretion using Ella automated immunoassay system (Proteinsimple Bio-techne) according to manufacturer's instructions."}, "CAR T cells [2]": {"test_system": "CAR T cells", "assay": "Global metabolomics on CAR T cells from coculture", "type": "cell-based, mouse", "conditions": "48 h coculture with imMac", "description": "(§2) 1×10^6 CAR T cells and 1×10^6 Eμ-myc-GFP-FFL cells were cocultured in the absence or presence of 0.25×10^6 macrophages in a 6-well plate in 6 ml of media for 48 h. After initial coculture, cells were harvested, and T cells were isolated using Mouse T Cell Isolation Kit (STEMCELL Technologies). T cell purity was 100% as tested by flow cytometry. Percentage of CAR-expressing T cells was determined with flow cytometry and were subsequently used for downstream assays.\nGlobal metabolomic profiling and 13C6-labeled glucose tracing of CAR T cells, 1×10^6 T cells were resuspended in either RPMI-1640 medium (RPMI+10% heat-inactivated dialyzed FBS) or 13C6-glucose substituted RPMI-1640 medium (glucose-free RPMI+10% heat-inactivated dialyzed FBS+11.1 mM ^13C6-glucose). After 4 h incubation, cells were collected, rapidly centrifuged (17,000×g, 10 sec, room temperature), and medium was removed. T cells were washed with 1 ml of ice-cold PBS, and metabolites were extracted with 300 μl of 80% methanol via incubation at −80° C. for 15 min. Samples were centrifuged (17,000×g, 20 min, 4° C.), and supernatants were transferred to an Eppendorf tube and dried in a vacuum evaporator overnight. The dried extracts were resuspended in 20 μl of aqueous 50% methanol, clarified by centrifugation (17,000×g, 20 min, room temperature), and analyzed by LC-HRMS. […]"}, "Eμ-myc B cell tumors": {"test_system": "Eμ-myc B cell tumors", "assay": "Survival of Eμ-myc tumor-bearing Rag1−/− mice treated with CAR T cells", "type": "in vivo, mouse", "conditions": "combination of 1928z CAR T cells and L-NIL (20 mg/kg i.p. once per day) compared to 1928z CAR T cells alone", "description": "Six-to 10-week-old Rag1/-mice of both sexes were intraperitoneally (i.p.) injected with 3×10^6 Eμ-myc-GFP-FFL cells to generate tumors localized in peritoneal cavity. Tumor engraftment was verified by bioluminescence imaging one day before CAR T cell transfer. Mice were randomized to different treatment groups without differences in pre-treatment tumor load. Seven days after tumor cell inoculation, mice were injected i.p. with 5×10^6 CAR T cells in 300 μl PBS. For survival experiments, L-NIL or PBS was administered i.p. once per day at 20 mg/kg body weight starting on the same day of tumor cell injection. […] Bioluminescence imaging was performed by IVIS Lumina III In Vivo Imaging System (PerkinElmer) with Living Image software (PerkinElmer)."}, "CAR T cells [3]": {"test_system": "CAR T cells", "assay": "Seahorse assay (ECAR, OCR) on CAR T cells from coculture", "type": "cell-based, mouse", "conditions": "48 h coculture in the presence of imMac", "description": "as §2\nECAR and OCR were measured using a Seahorse Extracellular Flux Analyzer (Agilent Technologies). XF96 microplates were coated with CellTak a day before analyses. To assay glycolytic function, T cells were resuspended in glucose-free XF medium supplied with 2 mM L-glutamine and 1 mM sodium pyruvate and seeded at 2×10^5 cells in 180 μl per well. Following incubation in a CO2-free incubator for 60 min at 37° C. for pH stabilization, ECAR was measured in response to 10 mM glucose, 1 μM oligomycin, and 50 mM 2-deoxyglucose. To assay mitochondrial function, T cells were resuspended in XF medium supplied with 2 mM L-glutamine, 1 mM sodium pyruvate, and 10 mM glucose and seeded at 2×10^5 cells in 180 μl per well. Following incubation in a CO2-free incubator for 60 min at 37° C. for pH stabilization, OCR was measured in response to 1 μM oligomycin, 1 μM FCCP, and 0.5 µM rotenone and antimycin."}, "[4]": {"conditions": "CAR T cells cocultured with Eμ-myc cells without macrophages"}, "[5]": {"conditions": "cocultures of CAR T cells and Eμ-myc cells with imMac"}}}
{"smiles": "O=NOO", "note": "[PNT, peroxynitrite]", "values": [{"measurement": "CAR T cell expansion", "setting": "CAR T cells [1]; [4]", "value": "inhibition of CAR T cell expansion"}, {"measurement": "ability of CAR T cells to kill tumor cells", "setting": "Eμ-myc cells", "value": "diminished ability of CAR T cells to kill tumor cells"}, {"measurement": "secretion of effector cytokines IFN-γ and TNF-α by CAR T cells", "setting": "IFN-γ and TNF-α", "value": "diminished"}]}
{"smiles": "NC(=O)NCCC[C@H](N)C(=O)O", "note": "[citrulline]", "values": [{"measurement": "CAR T cell expansion", "setting": "CAR T cells [1]; [4]", "value": "did not impact expansion of CAR T cells"}]}
{"smiles": "CC(=O)Oc1ccccc1C(=O)Oc1cccc(CO[N+](=O)[O-])c1", "note": "[NCX-4016]", "values": [{"measurement": "CAR T cell expansion", "setting": "CAR T cells [1]; [4]", "value": "inhibition of CAR T cell expansion"}, {"measurement": "ability of CAR T cells to kill tumor cells", "setting": "Eμ-myc cells", "value": "diminished ability of CAR T cells to kill tumor cells"}, {"measurement": "secretion of effector cytokines IFN-γ and TNF-α by CAR T cells", "setting": "IFN-γ and TNF-α", "value": "diminished"}]}
{"smiles": "CC(=N)NCCCC[C@H](N)C(=O)O", "note": "[L-NIL, L-N6-(1-Iminoethyl)-lysine]", "values": [{"measurement": "CAR T cell expansion", "setting": "CAR T cells [1]; [5]", "value": "complete rescue of CAR T cell expansion"}, {"measurement": "depletion of F1,6BP, G3P and DHAP in CAR T cells cocultured with imMac", "setting": "CAR T cells [2]", "value": "reversal"}, {"measurement": "capacity of CAR T cells to kill (lyse) tumor cells", "setting": "Eμ-myc cells; CAR T cells isolated after 48 h initial coculture with imMac, then cocultured with fresh Eμ-myc cells, 24 h", "value": "preserved the capacity of CAR T cells to kill tumor cells"}, {"measurement": "survival of tumor-bearing mice", "setting": "Eμ-myc B cell tumors", "value": "significantly improved survival"}, {"measurement": "production of effector cytokines IFN-γ and TNF-α by CAR T cells", "setting": "IFN-γ and TNF-α; CAR T cells isolated after 48 h initial coculture with imMac, then cocultured with fresh Eμ-myc cells", "value": "preserved"}, {"measurement": "glycolytic and oxidative metabolic capabilities of CAR T cells (ECAR, OCR)", "setting": "CAR T cells [3]", "value": "preserved glycolytic and oxidative metabolic capabilities of CAR T cells"}]}
{"smiles": "C=C(CC(=O)OCCCCCCCC)C(=O)O", "note": "[4-OI, 4-octyl itaconate]", "values": [{"measurement": "CAR T cell expansion", "setting": "CAR T cells [1]; [4]", "value": "impaired CAR T cell expansion"}]}
{"smiles": "N=C(NO)NCC[C@H](N)C(=O)O", "note": "[nor-NOHA]", "values": [{"measurement": "CAR T cell expansion", "setting": "CAR T cells [1]; cocultures with imMac, physiological arginine concentration (150 μM)", "value": "failed to rescue CAR T cell expansion"}, {"measurement": "CAR T cell expansion", "setting": "CAR T cells [1]; cocultures with imMac, supraphysiological arginine concentration (1.15 mM)", "value": "did not restore CAR T cell expansion"}]}
{"smiles": "CC1(C)N([O])C(c2ccc(C(=O)O)cc2)=[N+]([O-])C1(C)C", "note": "[c-PTIO, carboxyl-PTIO]", "values": [{"measurement": "CAR T cell expansion", "setting": "CAR T cells [1]; [5]", "value": "partially rescued expansion of CAR T cells"}]}
